Assay results published in patent publication US8192962B2, “Processes for detecting toxic substances” (Daikin Industries, Ltd., priority 2001, dated 2012).

Tested on: Mitochondria-located protein genes
Test: DNA chip mRNA expression in yeast, mitochondria-located protein genes (Table 2)
Type: cell-based, Saccharomyces cerevisiae S288C
Details: cells incubated two hours with the chemical substance
Outline: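 Ratios compare mRNA levels in stressed and control S. cerevisiae. Each toxicant was applied for two hours to log-phase cultures at 25° C. at a sub-lethal, growth-inhibiting level; fluorescent cDNA (Cy3- or Cy5-dUTP) was hybridized to a genome-wide yeast chip for over 12 h at 65° C.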

Measured: The level of expressed mRNA in the presence of chemical substance/The level of expressed mRNA in the absence of chemical substance

CCCCCCCCCCCCc1ccc(S(=O)(=O)[O-])cc1.[Na+] [(17), sodium dodecylbenzosulfonate]
1.2: yeast gene YLR038C | yeast gene YLR395C | yeast gene YNL055C | yeast gene YOL096C | yeast gene YOR037W | yeast gene YOR176W | yeast gene YPR037C
0.8: yeast gene YKL148C | yeast gene YLR259C | yeast gene YMR203W | yeast gene YNL073W | yeast gene YOR187W | yeast gene YOR316C | yeast gene YPL040C
2.4: yeast gene YKL142W
1.4: yeast gene YOR020C
1.0: yeast gene YKL003C | yeast gene YKL016C | yeast gene YML120C | yeast gene YNL071W | yeast gene YPL215W | yeast gene YPR047W | yeast gene YPR134W
1.1: yeast gene YJR121W | yeast gene YKL170W | yeast gene YKL194C | yeast gene YLL041C | yeast gene YLR348C | yeast gene YML054C | yeast gene YMR023C | yeast gene YPL262W | yeast gene YPR024W
0.9: yeast gene YKL141W | yeast gene YKR066C | yeast gene YLR295C | yeast gene YMR083W | yeast gene YMR089C | yeast gene YMR267W | yeast gene YNL104C | yeast gene YOR100C | yeast gene YOR142W | yeast gene YOR150W
1.3: yeast gene YML129C | yeast gene YPL134C
2.2: yeast gene YMR035W
1.5: yeast gene YMR152W | yeast gene YOR130C | yeast gene YPL135W
0.5: yeast gene YLR304C
0.6: yeast gene YNL256W
